Reference: patent US6369222B1, “mGluR antagonists and a method for their synthesis” (Hoffmann-La Roche Inc., priority 2000, dated 2002)

Tests used:
rat mGluR1a receptor = molecular target: T1, rat mGluR1a receptor (Rattus norvegicus, UniProt P23385); assay: Binding assay for the characterization of mGluR 1 antagonistic properties (displacement of tritiated 1-ethyl-2-methyl-6-oxo-4-(1,1,2-tritritio-1,2,4,5-tetrahydro-benzo[d]azepin-3-yl)-1,6-dihydro-pyrimidine-5-carbonitrile); conditions: membranes of HEK 293 cells transiently transfected with rat mGluR1a, 10 μg protein per assay; radioligand 3 nM; 1 hour at room temperature; read-out: B-IC50
T1 construct: expressed in transfected cells; host or cells: HEK 293 cells, transient transfection; membranes used
T1 sequence (P23385 19-1199): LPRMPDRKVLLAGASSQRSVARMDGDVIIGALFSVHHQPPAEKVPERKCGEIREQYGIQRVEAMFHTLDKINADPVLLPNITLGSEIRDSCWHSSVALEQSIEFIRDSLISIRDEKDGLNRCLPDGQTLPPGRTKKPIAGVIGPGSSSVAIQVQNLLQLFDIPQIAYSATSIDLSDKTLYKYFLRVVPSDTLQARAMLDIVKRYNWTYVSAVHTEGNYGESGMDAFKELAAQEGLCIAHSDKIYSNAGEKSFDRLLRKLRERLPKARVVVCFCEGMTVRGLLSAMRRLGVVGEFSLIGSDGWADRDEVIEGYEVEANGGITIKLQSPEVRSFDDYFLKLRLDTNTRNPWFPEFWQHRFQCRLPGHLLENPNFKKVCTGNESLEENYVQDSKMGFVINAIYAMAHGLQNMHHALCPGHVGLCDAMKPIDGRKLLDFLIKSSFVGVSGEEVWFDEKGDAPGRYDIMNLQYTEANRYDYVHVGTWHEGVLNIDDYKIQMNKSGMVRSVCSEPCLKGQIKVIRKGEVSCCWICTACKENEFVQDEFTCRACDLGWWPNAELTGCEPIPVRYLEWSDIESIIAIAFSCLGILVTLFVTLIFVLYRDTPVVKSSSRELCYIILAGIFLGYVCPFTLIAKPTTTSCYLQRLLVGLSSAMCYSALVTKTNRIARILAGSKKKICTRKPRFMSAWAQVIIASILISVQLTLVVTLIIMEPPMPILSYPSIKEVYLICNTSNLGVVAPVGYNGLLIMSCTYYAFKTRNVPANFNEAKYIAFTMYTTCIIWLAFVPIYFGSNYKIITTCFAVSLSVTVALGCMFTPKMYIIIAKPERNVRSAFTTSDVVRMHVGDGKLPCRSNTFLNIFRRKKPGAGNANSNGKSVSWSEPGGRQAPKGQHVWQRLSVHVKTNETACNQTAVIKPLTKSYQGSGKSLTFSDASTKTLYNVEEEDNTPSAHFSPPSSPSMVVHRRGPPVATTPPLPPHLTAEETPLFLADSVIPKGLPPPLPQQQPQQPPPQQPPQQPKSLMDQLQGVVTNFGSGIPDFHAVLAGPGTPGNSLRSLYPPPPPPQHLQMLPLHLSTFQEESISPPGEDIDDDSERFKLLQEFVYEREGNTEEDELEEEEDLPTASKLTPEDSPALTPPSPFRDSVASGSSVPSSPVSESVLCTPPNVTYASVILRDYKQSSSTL
Experimental: Binding Assay for the Characterization of mGluR 1 Antagonistic Properties
Binding assay with tritiated 1-ethyl-2-methyl-6-oxo-4-(1,1,2-tritritio-1,2,4,5-tetrahydro-benzo[d]azepin-3-yl)-1,6-dihydro-pyrimidine-5-carbonitrile: HEK 293 cells were transiently transfected with the rat mGluR1a receptor. The cells were collected and washed 3 times with PBS. The cell pellets were frozen at −80° C. Membranes were prepared from HEK 293 cells transfected with the rat mGluR1a receptor and used in the binding experiments at 10 μg proteins per assay after resuspension in a HEPES NaOH 20 mM, pH=7.4 binding buffer. 1-Ethyl-2-methyl-6-oxo-4-(1,1,2-tritritio-1,2,4,5-tetrahydro-benzo[d]azepin-3-yl)-1,6-dihydro-pyrimidine-5-carbonitrile (S.A. 33.4 Ci/mmol) was used at 3 nM final concentration. The incubation with variable concentrations of potential inhibitors was performed for 1 hour at room temperature, the incubate was then filtered onto GF/B glass fiber filter preincubated 1 hour in PEI 0,1% and washed 3 times with 1 ml of cold binding buffer. The radioactivity retained on the unifilter 96 was counted using a Topcount β counter. After correction for non specific binding the data were normalized and the IC50 value calculated using a 4 parameters logistic equation which was fitted to the inhibition curve.

| IC50 (rat mGluR1a receptor) | melting point | Structure (SMILES) |
| --- | --- | --- |
| 30 µM | > 200 °C | Cc1nc(N2CCc3nc(C)sc3CC2)c([N+](=O)[O-])c(=O)[nH]1 [Example 1, 2-methyl-6-(2-methyl-4,5,7,8-tetrahydro-thiazolo[4,5-d]azepin-6-yl)-5-nitro-3H-pyrimidin-4-one] |
|  | 164.2 to 166.8 °C | CCn1c(C)nc(N2CCc3nc(C)sc3CC2)c([N+](=O)[O-])c1=O [Example 2, 3-Ethyl-2-methyl-6-(2-methyl-4,5,7,8-tetrahydro-thiazolo[4,5-d]azepin-6-yl)-5-nitro-3H-pyrimidin-4-one] |
| 49 µM | > 200 °C | Cc1nc(N2CCc3nc(N)sc3CC2)c([N+](=O)[O-])c(=O)[nH]1 [Example 3, 6-(2-Amino-4,5,7,8-tetrahydro-thiazolo[4,5-d]azepin-6-yl)-2-methyl-5-nitro-3H-pyrimidin-4-one] |
| 6 µM | > 200 °C | CCn1c(C)nc(N2CCc3nc(N)sc3CC2)c([N+](=O)[O-])c1=O [Example 4, 6-(2-Amino-4,5,7,8-tetrahydro-thiazolo[4,5-d]azepin-6-yl)-3-ethyl-2-methyl-5-nitro-3H-pyrimidin-4-one] |
|  | > 200 °C | Cc1nc(O)c2c(n1)CCN(c1nc(C)nc(O)c1[N+](=O)[O-])CC2 [Example 5, 7-(6-Hydroxy-2-methyl-5-nitro-pyrimidin-4-yl)-2-methyl-6,7,8,9-tetrahydro-5H-pyrimido[4,5-d]azepin-4-ol] |
| 43 µM |  | Cc1nc(N2CCc3ncsc3CC2)c([N+](=O)[O-])c(=O)[nH]1 [Example 6, 2-Methyl-5-nitro-6-(4,5,7,8-tetrahydro-thiazolo[4,5-d]azepin-6-yl)-3H-pyrimidin-4-one] |
|  | > 200 °C | Cc1nc(O)c([N+](=O)[O-])c(N2CCc3cncnc3CC2)n1 [Example 7, 2-Methyl-5-nitro-6-(5,6,8,9-tetrahydro-pyrimido[4,5-d]azepin-7-yl)-pyrimidin-4-ol] |
| 1.9 µM | > 200 °C | Cc1nc(N2CCc3ccsc3CC2)c([N+](=O)[O-])c(=O)[nH]1 [Example 9, 2-Methyl-5-nitro-6-(4,5,7,8-tetrahydro-thieno[2,3-d]azepin-6-yl)-3H-pyrimidin-4-one] |
